Test results: patent US9499550B2 (BRISTOL-MYERS SQUIBB COMPANY, priority 2012, dated 2016)

Assays:
[1] = system: HCV genotype 1a (H77 strain) replicon in HUH-7 cells; experiment: HCV replicon luciferase reporter assay, genotype 1a; type: cell-based; details: Hepatitis C virus, Huh-7, 72 h, HCV genotype 1a replicon luciferase assay, 3 days incubation, range class, read-out: LE_1a (EC50, range)
How it was run: (§1)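 Replicon inhibition for both genotypes was measured as Renilla luciferase signal (EnduRen, 7.5 μM final, 2 h) after 3-day, 37° C exposure of replicon-bearing HUH-7 cells in 4% FCS DMEM, 0.5% DMSO. The 1b construct carries S1179I; the 1a H77 construct carries P1496L and S2204I. Twenty-point, 3-fold dilutions were fitted four-parametrically for EC50, and CC50 was taken from multiplexed Cell Titer-Blue.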

[2] = system: HCV genotype 1b (Con1) replicon in HUH-7 cells; experiment: HCV replicon luciferase reporter assay, genotype 1b; type: cell-based; details: Hepatitis C virus, Huh-7, 72 h, HCV genotype 1b replicon luciferase assay, 3 days incubation, range class, read-out: LE_1b (EC50, range)
How it was run: as §1

Structure (SMILES)	EC50 [1]	EC50 [2]
C[C@@H]1CC/C=C\[C@@H]2C[C@@]2(C(=O)NS(=O)(=O)C2CC2)NC(=O)[C@@H]2C[C@@H](Oc3ncc(OCC(F)F)c4ccccc34)CN2C(=O)[C@@H](NC(=O)O[C@H](C)C(F)(F)F)[C@H](C)C1 [Compound 1034, (R)-1,1,1-trifluoropropan-2-yl((2R,6S,7R,9R,13aS,14aR,16aS,Z)-14a-((cyclopropylsulfonyl)carbamoyl)-2-((4-(2,2-difluoroethoxyl)isoquinolin-1-yl)oxy)-7,9-dimethyl-5,16-dioxo-1,2,3,5,6,7,8,9,10,11,13a,14,14a,15,16,16a-hexadecahydrocyclopropa[e]pyrrolo[1,2-a][1,4]diazacyclopentadecin-6-yl)carbamate]	< 5.46 nM	< 5.46 nM
C[C@H]1CC/C=C\[C@@H]2C[C@@]2(C(=O)NS(=O)(=O)C2(C)CC2)NC(=O)[C@@H]2C[C@@H](Oc3ncc(OCC(F)F)c4ccccc34)CN2C(=O)[C@@H](NC(=O)O[C@H](C)C(F)(F)F)[C@H](C)C1 [Compound 1035, (R)-1,1,1-trifluoropropan-2-yl ((2R,6S,7R,9S,13aS,14aR,16aS,Z)-2-((4-(2,2-difluoroethoxyl)isoquinolin-1-yl)oxy)-7,9-dimethyl-14a-(((1-methylcyclopropyl)sulfonyl)carbamoyl)-5,16-dioxo-1,2,3,5,6,7,8,9,10,11,13a,14,14a,15,16,16a-hexadecahydrocyclopropa[e]pyrrolo[1,2-a][1,4]diazacyclopentadecin-6-yl)carbamate]	4.82 to 103 nM	4.82 to 103 nM
C[C@@H]1CC/C=C\[C@@H]2C[C@@]2(C(=O)NS(=O)(=O)C2(C)CC2)NC(=O)[C@@H]2C[C@@H](Oc3ncc(OCC(F)F)c4ccccc34)CN2C(=O)[C@@H](NC(=O)O[C@H](C)C(F)(F)F)[C@H](C)C1 [Compound 1036, (R)-1,1,1-trifluoropropan-2-yl ((2R,6S,7R,9R,13aS,14aR,16aS,Z)-2-((4-(2,2-difluoroethoxyl)isoquinolin-1-yl)oxy)-7,9-dimethyl-14a-(((1-methylcyclopropyl)sulfonyl)carbamoyl)-5,16-dioxo-1,2,3,5,6,7,8,9,10,11,13a,14,14a,15,16,16a-hexadecahydrocyclopropa[e]pyrrolo[1,2-a][1,4]diazacyclopentadecin-6-yl)carbamate]	< 5.46 nM	< 5.46 nM
COCCOc1cnc(O[C@@H]2C[C@H]3C(=O)N[C@]4(C(=O)NS(=O)(=O)C5(C)CC5)C[C@H]4/C=C\CC[C@H](C)C[C@@H](C)[C@H](NC(=O)OC(C)(C)C(F)(F)F)C(=O)N3C2)c2ccccc12 [Compound 1037, 1,1,1-trifluoro-2-methylpropan-2-yl((2R,6S,7R,9S,13aS,14aR,16aS,Z)-2-((4-(2-methoxyethoxyl)isoquinolin-1-yl)oxy)-7,9-dimethyl-14a-(((1-methylcyclopropyl)sulfonyl)carbamoyl)-5,16-dioxo-1,2,3,5,6,7,8,9,10,11,13a,14,14a,15,16,16a-hexadecahydrocyclopropa[e]pyrrolo[1,2-a][1,4]diazacyclopentadecin-6-yl)carbamate]	4.82 to 103 nM	4.82 to 103 nM
COCCOc1cnc(O[C@@H]2C[C@H]3C(=O)N[C@]4(C(=O)NS(=O)(=O)C5(C)CC5)C[C@H]4/C=C\CC[C@@H](C)C[C@@H](C)[C@H](NC(=O)OC(C)(C)C(F)(F)F)C(=O)N3C2)c2ccccc12 [Compound 1038, 1,1,1-trifluoro-2-methylpropan-2-yl((2R,6S,7R,9R,13aS,14aR,16aS,Z)-2-((4-(2-methoxyethoxyl)isoquinolin-1-yl)oxy)-7,9-dimethyl-14a-(((1-methylcyclopropyl)sulfonyl)carbamoyl)-5,16-dioxo-1,2,3,5,6,7,8,9,10,11,13a,14,14a,15,16,16a-hexadecahydrocyclopropa[e]pyrrolo[1,2-a][1,4]diazacyclopentadecin-6-yl)carbamate]	< 5.46 nM	< 5.46 nM
COCCOc1cnc(O[C@@H]2C[C@H]3C(=O)N[C@]4(C(=O)NS(=O)(=O)C5(C)CC5)C[C@H]4/C=C\CC[C@@H](C)C[C@@H](C)[C@H](NC(=O)OC4C[C@@H]5C[C@H]5C4)C(=O)N3C2)c2ccccc12 [Compound 1039, (1S,5S)-bicyclo[3.1.0]hexan-3-yl((2R,6S,7R,9R,13aS,14aR,16aS,Z)-2-((4-(2-methoxyethoxyl)isoquinolin-1-yl)oxy)-7,9-dimethyl-14a-(((1-methylcyclopropyl)sulfonyl)carbamoyl)-5,16-dioxo-1,2,3,5,6,7,8,9,10,11,13a,14,14a,15,16,16a-hexadecahydrocyclopropa[e]pyrrolo[1,2-a][1,4]diazacyclopentadecin-6-yl)carbamate]	< 5.46 nM	< 5.46 nM
COCCOc1cnc(O[C@@H]2C[C@H]3C(=O)N[C@]4(C(=O)NS(=O)(=O)C5CC5)C[C@H]4/C=C\CC[C@@H](C)C[C@@H](C)[C@H](NC(=O)OC4C[C@@H]5C[C@H]5C4)C(=O)N3C2)c2ccccc12 [Compound 1040, (1S,5S)-bicyclo[3.1.0]hexan-3-yl((2R,6S,7R,9R,13aS,14aR,16aS,Z)-14a-((cyclopropylsulfonyl)carbamoyl)-2-((4-(2-methoxyethoxyl)isoquinolin-1-yl)oxy)-7,9-dimethyl-5,16-dioxo-1,2,3,5,6,7,8,9,10,11,13a,14,14a,15,16,16a-hexadecahydrocyclopropa[e]pyrrolo[1,2-a][1,4]diazacyclopentadecin-6-yl)carbamate]	< 5.46 nM	< 5.46 nM
COc1cnc(O[C@@H]2C[C@H]3C(=O)N[C@]4(C(=O)NS(=O)(=O)C5(CF)CC5)C[C@H]4/C=C\CC[C@@H](C)C[C@@H](C)[C@H](NC(=O)OC4COC4)C(=O)N3C2)c2ccccc12 [Compound 1041, oxetan-3-yl ((2R,6S,7R,9R,13aS,14aR,16aS,Z)-14a-(((1-(fluoromethyl)cyclopropyl)sulfonyl)carbamoyl)-2-((4-methoxyisoquinolin-1-yl)oxy)-7,9-dimethyl-5,16-dioxo-1,2,3,5,6,7,8,9,10,11,13a,14,14a,15,16,16a-hexadecahydrocyclopropa[e]pyrrolo[1,2-a][1,4]diazacyclopentadecin-6-yl)carbamate]	4.82 to 103 nM	< 5.46 nM
COc1cnc(O[C@@H]2C[C@H]3C(=O)N[C@]4(C(=O)NS(=O)(=O)C5(CF)CC5)C[C@H]4/C=C\CC[C@@H](C)C[C@@H](C)[C@H](NC(=O)OC(C)(C)C(C)(F)F)C(=O)N3C2)c2ccccc12 [Compound 1043, 3,3-difluoro-2-methylbutan-2-yl((2R,6S,7R,9R,13aS,14aR,16aS,Z)-14a-(((1-(fluoromethyl)cyclopropyl)sulfonyl)carbamoyl)-2-((4-methoxyisoquinolin-1-yl)oxy)-7,9-dimethyl-5,16-dioxo-1,2,3,5,6,7,8,9,10,11,13a,14,14a,15,16,16a-hexadecahydrocyclopropa[e]pyrrolo[1,2-a][1,4]diazacyclopentadecin-6-yl)carbamate]	< 5.46 nM	< 5.46 nM
CCC(C)(C)OC(=O)N[C@@H]1C(=O)N2C[C@H](Oc3ncc(OC)c4ccccc34)C[C@H]2C(=O)N[C@]2(C(=O)NS(=O)(=O)C3(CF)CC3)C[C@H]2/C=C\CC[C@@H](C)C[C@H]1C [Compound 1044, tert-pentyl ((2R,6S,7R,9R,13aS,14aR,16aS,Z)-14a-(((1-(fluoromethyl)cyclopropyl)sulfonyl)carbamoyl)-2-((4-methoxyisoquinolin-1-yl)oxy)-7,9-dimethyl-5,16-dioxo-1,2,3,5,6,7,8,9,10,11,13a,14,14a,15,16,16a-hexadecahydrocyclopropa[e]pyrrolo[1,2-a][1,4]diazacyclopentadecin-6-yl)carbamate]	< 5.46 nM	< 5.46 nM
COc1cnc(O[C@@H]2C[C@H]3C(=O)N[C@]4(C(=O)NS(=O)(=O)C5(CF)CC5)C[C@H]4/C=C\CC[C@@H](C)C[C@@H](C)[C@H](NC(=O)OC4(C)COC4)C(=O)N3C2)c2ccccc12 [Compound 1045, 3-methyloxetan-3-yl ((2R,6S,7R,9R,13aS,14aR,16aS,Z)-14a-(((1-(fluoromethyl)cyclopropyl)sulfonyl)carbamoyl)-2-((4-methoxyisoquinolin-1-yl)oxy)-7,9-dimethyl-5,16-dioxo-1,2,3,5,6,7,8,9,10,11,13a,14,14a,15,16,16a-hexadecahydrocyclopropa[e]pyrrolo[1,2-a][1,4]diazacyclopentadecin-6-yl)carbamate]	< 5.46 nM	< 5.46 nM
COc1cnc(O[C@@H]2C[C@H]3C(=O)N[C@]4(C(=O)NS(=O)(=O)C5(CF)CC5)C[C@H]4/C=C\CC[C@@H](C)C[C@@H](C)[C@H](NC(=O)OC4(C(F)(F)F)COC4)C(=O)N3C2)c2ccccc12 [Compound 1046, 3-(trifluoromethyl)oxetan-3-yl ((2R,6S,7R,9R,13aS,14aR,16aS,Z)-14a-(((1-(fluoromethyl)cyclopropyl)sulfonyl)carbamoyl)-2-((4-methoxyisoquinolin-1-yl)oxy)-7,9-dimethyl-5,16-dioxo-1,2,3,5,6,7,8,9,10,11,13a,14,14a,15,16,16a-hexadecahydrocyclopropa[e]pyrrolo[1,2-a][1,4]diazacyclopentadecin-6-yl)carbamate]	< 5.46 nM	< 5.46 nM
COc1cnc(O[C@@H]2C[C@H]3C(=O)N[C@]4(C(=O)NS(=O)(=O)C5(CF)CC5)C[C@H]4/C=C\CC[C@H](C)C[C@@H](C)[C@H](NC(=O)OC4(C(F)(F)F)CCOCC4)C(=O)N3C2)c2ccccc12 [Compound 1047, 4-(trifluoromethyl)tetrahydro-2H-pyran-4-yl((2R,6S,7R,9S,13aS,14aR,16aS,Z)-14a-(((1-(fluoromethyl)cyclopropyl)sulfonyl)carbamoyl)-2-((4-methoxyisoquinolin-1-yl)oxy)-7,9-dimethyl-5,16-dioxo-1,2,3,5,6,7,8,9,10,11,13a,14,14a,15,16,16a-hexadecahydrocyclopropa[e]pyrrolo[1,2-a][1,4]diazacyclopentadecin-6-yl)carbamate]	4.82 to 103 nM	4.82 to 103 nM
